Assay results as given in patent publication US6441195B1, “Substituted sulphonylamino(thio) carbonyl compounds” (Bayer Aktiengesellschaft, priority 1995, dated 2002).

Assays:
Format in all cases: in vivo
Poa = test: Pre-emergence test/Greenhouse, Poa; conditions: after three weeks
Protocol: (§1) To produce a suitable preparation of the active compound, 1 part by weight of active compound is mixed with the stated amount of solvent, the stated amount of emulsifier is added and the concentrate is diluted with water to the desired concentration.
(§2) Seeds of the test plants are sown in normal soil. After about 24 hours, the soil is watered with the preparation of active compound. Advantageously, the amount of water per unit area is kept constant. The active compound concentration in the preparation is not important, only the active compound appliation rate per unit area matters.
(§3) After three weeks, the degree of damage to the plants is rated in % damage in comparison to the development of the untreated control.
(§4) 0%=no action (like untreated control)

Lolium = test: Pre-emergence test/Greenhouse, Lolium; conditions: after three weeks
Protocol: as §1, §2, §3, §4

weeds = test: Pre-emergence test (greenhouse), activity against weeds; conditions: in words
Protocol: Solvent: 5 parts by weight of acetone
Emulsifier: 1 part by weight of alkylaryl polyglycol ether
as §1, §2, §3, §4

Sorghum = test: Pre-emergence test/Greenhouse, Sorghum; conditions: after three weeks
Protocol: as §1, §2, §3, §4

Soya beans = test: Pre-emergence test/Greenhouse, Soya beans; conditions: in vivo
Protocol: as §1, §2, §3, §4

Solanum = test: Pre-emergence test/Greenhouse, Solanum; conditions: after three weeks
Protocol: as §1, §2, §3, §4

Ambrosia = test: Pre-emergence test/Greenhouse, Ambrosia; conditions: after three weeks
Protocol: as §1, §2, §3, §4

Matricaria = test: Pre-emergence test/Greenhouse, Matricaria; conditions: after three weeks
Protocol: as §1, §2, §3, §4

Maize = test: Pre-emergence test/Greenhouse, Maize; conditions: in vivo
Protocol: as §1, §2, §3, §4

| Compound | activity against weeds (weeds) | degree of damage to the plants (% damage vs untreated control), Soya beans (Soya beans) | degree of damage to the plants (% damage vs untreated control), Poa (Poa; 60 g of ai./ha) | degree of damage to the plants (% damage vs untreated control), Maize (Maize) | degree of damage to the plants (% damage vs untreated control), Lolium (Lolium; 60 g of ai./ha) | degree of damage to the plants (% damage vs untreated control), Solanum (Solanum; 60 g of ai./ha) | degree of damage to the plants (% damage vs untreated control), Ambrosia (Ambrosia; 60 g of ai./ha) | degree of damage to the plants (% damage vs untreated control), Matricaria (Matricaria; 60 g of ai./ha) | degree of damage to the plants (% damage vs untreated control), Lolium (Lolium; 125 g of ai./ha) | degree of damage to the plants (% damage vs untreated control), Solanum (Solanum; 125 g of ai./ha) | degree of damage to the plants (% damage vs untreated control), Matricaria (Matricaria; 125 g of ai./ha) | other results |
| --- | --- | --- | --- | --- | --- | --- | --- | --- | --- | --- | --- | --- |
| COc1nn(C(=O)NS(=O)(=O)c2c(C)cccc2C(=O)OC(C)C)c(=O)n1C [Example 16] | very strong activity against weeds | 0% | – | – | – | – | – | – | – | – | – | degree of damage to the plants (% damage vs untreated control), Poa (Poa; 30 g of ai./ha): 95%; degree of damage to the plants (% damage vs untreated control), Lolium (Lolium; 30 g of ai./ha): 95%; degree of damage to the plants (% damage vs untreated control), Sorghum (Sorghum; 30 g of ai./ha): 90%; degree of damage to the plants (% damage vs untreated control), Solanum (Solanum; 30 g of ai./ha): 95%; degree of damage to the plants (% damage vs untreated control), Ambrosia (Ambrosia; 30 g of ai./ha): 95%; degree of damage to the plants (% damage vs untreated control), Matricaria (Matricaria; 30 g of ai./ha): 95% |
| CCCOc1nn(C(=O)NS(=O)(=O)c2c(C)cccc2C(=O)OC(C)C)c(=O)n1C [Example 17] | very strong activity against weeds | 0% | – | – | – | – | – | – | – | – | – | degree of damage to the plants (% damage vs untreated control), Poa (Poa; 30 g of ai./ha): 95%; degree of damage to the plants (% damage vs untreated control), Lolium (Lolium; 30 g of ai./ha): 80%; degree of damage to the plants (% damage vs untreated control), Sorghum (Sorghum; 30 g of ai./ha): 60%; degree of damage to the plants (% damage vs untreated control), Solanum (Solanum; 30 g of ai./ha): 95%; degree of damage to the plants (% damage vs untreated control), Ambrosia (Ambrosia; 30 g of ai./ha): 95%; degree of damage to the plants (% damage vs untreated control), Matricaria (Matricaria; 30 g of ai./ha): 95% |
| COC(=O)c1scc(C)c1S(=O)(=O)NC(=O)n1nc(OC(C)C)n(C)c1=O [Example 40] | very strong activity against weeds | 30% | 95% | 10% | 90% | 95% | 95% | 95% | – | – | – | – |
| CCSc1nn(C(=O)NS(=O)(=O)c2c(C)cccc2C(=O)OC(C)C)c(=O)n1C [Example 42] | very strong activity against weeds | 10% | 95% | 10% | 95% | 95% | 95% | 95% | – | – | – | – |
| CCOc1nn(C(=O)NS(=O)(=O)c2c(C)cccc2C(=O)OC(C)C)c(=O)n1CC [Example 43] | very strong activity against weeds | 10% | 95% | – | 95% | 95% | 95% | 95% | – | – | – | degree of damage to the plants (% damage vs untreated control), Sorghum (Sorghum; 60 g of ai./ha): 80% |
| CCCOC(=O)c1cccc(C)c1S(=O)(=O)NC(=O)n1nc(OCC)n(CC)c1=O [Example 45] | very strong activity against weeds | 20% | – | 10% | – | – | – | – | 90% | 95% | 90% | degree of damage to the plants (% damage vs untreated control), Poa (Poa; 125 g of ai./ha): 95%; degree of damage to the plants (% damage vs untreated control), Ambrosia (Ambrosia; 125 g of ai./ha): 95% |
| CCCOC(=O)c1cccc(C)c1S(=O)(=O)NC(=O)n1nc(SCC)n(C)c1=O [Example 48] | very strong activity against weeds | 20% | – | 30% | – | – | – | – | 95% | 95% | 100% | degree of damage to the plants (% damage vs untreated control), Poa (Poa; 125 g of ai./ha): 95%; degree of damage to the plants (% damage vs untreated control), Ambrosia (Ambrosia; 125 g of ai./ha): 95% |
| CCOC(=O)c1scc(C)c1S(=O)(=O)NC(=O)n1nc(OCC)n(CC)c1=O [Example 64] | very strong activity against weeds | 30% | 60% | 10% | 90% | 100% | 100% | 100% | – | – | – | – |
| CCOc1nn(C(=O)NS(=O)(=O)c2c(C)csc2C(=O)OC(C)C)c(=O)n1C [Example 76] | very strong activity against weeds | 30% | – | 0% | 95% | 95% | – | 100% | – | – | – | degree of damage to the plants (% damage vs untreated control), Sorghum (Sorghum; 60 g of ai./ha): 95% |
| Cc1csc(C(=O)OC(C)C)c1S(=O)(=O)NC(=O)n1nc(OC(C)C)n(C)c1=O [Example 84] | very strong activity against weeds | 30% | – | 5% | – | – | – | – | 95% | 100% | 95% | degree of damage to the plants (% damage vs untreated control), Sorghum (Sorghum; 125 g of ai./ha): 90% |
| CCOc1nn(C(=O)NS(=O)(=O)c2c(C)csc2C(=O)OC(C)C)c(=O)n1CC [Example 86] | very strong activity against weeds | 40% | – | 10% | – | – | – | – | 80% | 95% | 100% | degree of damage to the plants (% damage vs untreated control), Sorghum (Sorghum; 125 g of ai./ha): 70% |
| COC(=O)c1cccc(OC)c1S(=O)(=O)NC(=O)n1nc(OC(C)C)n(C2CC2)c1=O [Example 135] | very strong activity against weeds | 40% | – | – | – | – | – | – | 95% | 95% | 90% | degree of damage to the plants (% damage vs untreated control), Poa (Poa; 125 g of ai./ha): 95%; degree of damage to the plants (% damage vs untreated control), Sorghum (Sorghum; 125 g of ai./ha): 90%; degree of damage to the plants (% damage vs untreated control), Ambrosia (Ambrosia; 125 g of ai./ha): 90% |
| COC(=O)c1cccc(C)c1S(=O)(=O)NC(=O)n1nc(OCC(F)(F)F)n(C2CC2)c1=O [Example 142] | very strong activity against weeds | 10% | – | 20% | – | – | – | – | – | – | – | degree of damage to the plants (% damage vs untreated control), Poa (Poa; 15 g of ai./ha): 80%; degree of damage to the plants (% damage vs untreated control), Lolium (Lolium; 15 g of ai./ha): 95%; degree of damage to the plants (% damage vs untreated control), Solanum (Solanum; 15 g of ai./ha): 80%; degree of damage to the plants (% damage vs untreated control), Ambrosia (Ambrosia; 15 g of ai./ha): 80%; degree of damage to the plants (% damage vs untreated control), Matricaria (Matricaria; 15 g of ai./ha): 80% |
| CCOn1c(SC)nn(C(=O)NS(=O)(=O)c2c(C)cccc2C(=O)OC)c1=O [Example 146] | very strong activity against weeds | 10% | 90% | 0% | 80% | 90% | 80% | 80% | – | – | – | – |
| C=CCOc1nn(C(=O)NS(=O)(=O)c2c(C)cccc2C(=O)OC)c(=O)n1C1CC1 [Example 147] | very strong activity against weeds | 0% | – | 30% | – | – | – | – | – | – | – | degree of damage to the plants (% damage vs untreated control), Poa (Poa; 15 g of ai./ha): 90%; degree of damage to the plants (% damage vs untreated control), Lolium (Lolium; 15 g of ai./ha): 95%; degree of damage to the plants (% damage vs untreated control), Solanum (Solanum; 15 g of ai./ha): 80%; degree of damage to the plants (% damage vs untreated control), Ambrosia (Ambrosia; 15 g of ai./ha): 70%; degree of damage to the plants (% damage vs untreated control), Matricaria (Matricaria; 15 g of ai./ha): 70% |
| COC(=O)c1cccc(C)c1S(=O)(=O)NC(=O)n1nc(SCC(F)(F)F)n(C)c1=O [Example 150] | very strong activity against weeds | 10% | – | – | – | – | – | – | 80% | 80% | 80% | degree of damage to the plants (% damage vs untreated control), Poa (Poa; 125 g of ai./ha): 90%; degree of damage to the plants (% damage vs untreated control), Sorghum (Sorghum; 125 g of ai./ha): 80%; degree of damage to the plants (% damage vs untreated control), Ambrosia (Ambrosia; 125 g of ai./ha): 70% |
| C#CCSc1nn(C(=O)NS(=O)(=O)c2c(C)cccc2C(=O)OC)c(=O)n1C [Example 161] | very strong activity against weeds | 20% | 95% | 0% | 95% | 95% | 95% | 95% | – | – | – | – |
